≈ marks a conversion by molar mass, not a printed value.
What was measured:
Test in all cases: ≥ marks a high value that may be exact or a test limit, other limits are often not marked, values filed in µg/mL are converted to µM
Bacillus cereus = system: Bacillus cereus
Staphylococcus aureus = system: Staphylococcus aureus
Escherichia coli = system: Escherichia coli
[1] = system: Pseudomonas aeruginosa ATCC 27853
[2] = system: Bacillus subtilis ATCC 6633
[3] = system: Klebsiella pneumoniae ATCC 700603
[4] = system: Escherichia coli ATCC 25922
[5] = system: Staphylococcus aureus ATCC 25923
[6] = system: Staphylococcus epidermidis ATCC 12228
[7] = system: Candida albicans ATCC 10231
[8] = system: Staphylococcus aureus ATCC 29213

SMILES | MIC (Bacillus cereus) [µM] | MIC (Staphylococcus aureus) [µM] | MIC (Escherichia coli) [µM] | also measured
CC(C)C[C@H](NC(=O)[C@@H](N)Cc1ccccc1)C(=O)NCC(=O)N[C@@H](CCCCN)C(=O)N[C@H](C(=O)N[C@@H](Cc1ccccc1)C(=O)N[C@@H](CCCCN)C(=O)N[C@@H](CCCCN)C(=O)N[C@@H](C)C(=O)N[C@@H](CO)C(=O)N[C@@H](CCCCN)C(=O)N[C@H](C(=O)N[C@H](C(=O)N1CCC[C@H]1C(=O)N[C@@H](C)C(=O)N[C@H](C(=O)N[C@@H](Cc1ccccc1)C(=O)NCC(=O)N[C@@H](CCCCN)C(=O)N[C@H](C(=O)O)C(C)C)C(C)C)C(C)C)C(C)C)C(C)C [FLGKVFKKASKVVPAVFGKV] | ≥ 119 | > 119 | 119 (≈ 256 µg/mL) | –
CC(C)C[C@H](NC(=O)[C@H](CCCCN)NC(=O)[C@H](Cc1ccccc1)NC(=O)[C@@H](NC(=O)[C@H](CCCCN)NC(=O)CNC(=O)[C@H](CC(C)C)NC(=O)[C@@H](N)Cc1ccccc1)C(C)C)C(=O)N[C@@H](C)C(=O)N[C@@H](CO)C(=O)N[C@@H](CCCCN)C(=O)N[C@H](C(=O)N[C@@H](Cc1ccccc1)C(=O)N1CCC[C@H]1C(=O)N[C@@H](C)C(=O)N[C@H](C(=O)N[C@@H](Cc1ccccc1)C(=O)NCC(=O)N[C@@H](CCCCN)C(=O)N[C@H](C(=O)O)C(C)C)C(C)C)C(C)C [FLGKVFKLASKVFPAVFGKV] | 7.33 (≈ 16 µg/mL) | 14.7 (≈ 32 µg/mL) | 7.33 (≈ 16 µg/mL) | –
CC(C)C[C@H](NC(=O)[C@@H](N)Cc1ccccc1)C(=O)NCC(=O)N[C@@H](CCCCN)C(=O)N[C@H](C(=O)N[C@H](C(=O)N[C@@H](CCCCN)C(=O)NCC(=O)N[C@@H](C)C(=O)N[C@@H](CO)C(=O)N[C@@H](CCCCN)C(=O)N[C@H](C(=O)N[C@@H](Cc1ccccc1)C(=O)N1CCC[C@H]1C(=O)N[C@@H](C)C(=O)N[C@H](C(=O)N[C@@H](Cc1ccccc1)C(=O)NCC(=O)N[C@@H](CCCCN)C(=O)N[C@H](C(=O)O)C(C)C)C(C)C)C(C)C)C(C)C)C(C)C [FLGKVVKGASKVFPAVFGKV] | ≥ 123 | > 123 | > 123 | –
CC(C)C[C@H](NC(=O)[C@H](CCCCN)NC(=O)[C@H](Cc1ccccc1)NC(=O)[C@@H](NC(=O)[C@H](CO)NC(=O)CNC(=O)[C@H](CC(C)C)NC(=O)[C@@H](N)Cc1ccccc1)C(C)C)C(=O)N[C@@H](C)C(=O)N[C@@H](CO)C(=O)N[C@@H](CCCCN)C(=O)N[C@H](C(=O)N[C@@H](Cc1ccccc1)C(=O)N1CCC[C@H]1C(=O)N[C@@H](C)C(=O)N[C@H](C(=O)N[C@@H](Cc1ccccc1)C(=O)NCC(=O)N[C@@H](CCCCN)C(=O)N[C@H](C(=O)O)C(C)C)C(C)C)C(C)C [FLGSVFKLASKVFPAVFGKV] | 14.9 (≈ 32 µg/mL) | 29.9 (≈ 64 µg/mL) | 29.9 (≈ 64 µg/mL) | –
CC(C)C[C@H](NC(=O)[C@@H](N)Cc1ccccc1)C(=O)NCC(=O)N[C@H](C(=O)N[C@H](C(=O)N[C@@H](Cc1ccccc1)C(=O)N[C@@H](CCCCN)C(=O)N[C@@H](CCCCN)C(=O)N[C@@H](C)C(=O)N[C@@H](CO)C(=O)N[C@@H](CCCCN)C(=O)N[C@H](C(=O)N[C@@H](Cc1ccccc1)C(=O)NCC(=O)N[C@@H](C)C(=O)N[C@H](C(=O)N[C@@H](Cc1ccccc1)C(=O)NCC(=O)N[C@@H](CCCCN)C(=O)N[C@H](C(=O)O)C(C)C)C(C)C)C(C)C)C(C)C)C(C)C [FLGVVFKKASKVFGAVFGKV] | ≥ 60.1 | > 120 | 30.1 (≈ 64 µg/mL) | –
CC(C)C[C@H](NC(=O)[C@H](CCCCN)NC(=O)[C@H](Cc1ccccc1)NC(=O)[C@@H](NC(=O)[C@@H](NC(=O)CNC(=O)[C@H](CC(C)C)NC(=O)[C@@H](N)Cc1ccccc1)C(C)C)C(C)C)C(=O)N[C@@H](C)C(=O)N[C@@H](CO)C(=O)N[C@@H](CCCCN)C(=O)N[C@H](C(=O)N[C@@H](Cc1ccccc1)C(=O)NCC(=O)N[C@@H](CCCCN)C(=O)N[C@H](C(=O)N[C@@H](Cc1ccccc1)C(=O)NCC(=O)N[C@@H](CCCCN)C(=O)N[C@H](C(=O)O)C(C)C)C(C)C)C(C)C [FLGVVFKLASKVFGKVFGKV] | 3.69 (≈ 8 µg/mL) | 3.69 (≈ 8 µg/mL) | 29.5 (≈ 64 µg/mL) | –
CC(C)C[C@H](NC(=O)[C@@H](N)Cc1ccccc1)C(=O)NCC(=O)N[C@H](C(=O)N[C@H](C(=O)N[C@@H](Cc1ccccc1)C(=O)N[C@@H](CCCCN)C(=O)N[C@@H](CO)C(=O)N[C@@H](C)C(=O)N[C@@H](CO)C(=O)N[C@@H](CCCCN)C(=O)N[C@H](C(=O)N[C@@H](Cc1ccccc1)C(=O)N1CCC[C@H]1C(=O)N[C@@H](C)C(=O)N[C@H](C(=O)N[C@@H](Cc1ccccc1)C(=O)NCC(=O)N[C@@H](CCCCN)C(=O)N[C@H](C(=O)O)C(C)C)C(C)C)C(C)C)C(C)C)C(C)C [FLGVVFKSASKVFPAVFGKV] | ≥ 120 | > 120 | > 120 | –
CC(=O)N[C@@H](CCCCN)C(=O)N[C@@H](Cc1ccccc1)C(=O)N[C@@H](CC(C)C)C(=O)N[C@@H](CCCCN)C(=O)N[C@@H](CC(C)C)C(=O)N[C@@H](CCCCN)C(=O)N[C@@H](Cc1c[nH]c2ccccc12)C(=O)N[C@@H](CC(C)C)C(=O)N[C@@H](CCCCN)C(=O)N[C@@H](CO)C(=O)N[C@@H](Cc1c[nH]c2ccccc12)C(=O)N[C@@H](CCCCN)C(=O)N[C@@H](CC(N)=O)C(=O)N[C@@H](Cc1ccccc1)C(=O)N[C@@H](CCCCN)C(N)=O [KFLKLKWLKSWKNFK] | – | – | – | MIC [1]: 12.5 µM (≈ 25.4 µg/mL); MIC [2]: 6.4 µM (≈ 13 µg/mL); MIC [3]: 25 µM (≈ 50.9 µg/mL); MIC [4]: 12.5 µM (≈ 25.4 µg/mL); MIC [5]: 50 µM (≈ 102 µg/mL); MIC [6]: 12.5 µM (≈ 25.4 µg/mL)
CC(C)C[C@H](NC(=O)[C@H](CCCN=C(N)N)NC(=O)[C@H](C)NC(=O)[C@@H](NC(=O)[C@H](CCCN=C(N)N)NC(=O)[C@H](CCCN=C(N)N)NC(=O)[C@H](CC(C)C)NC(=O)[C@@H](N)CC(C)C)C(C)C)C(=O)N[C@@H](CC(C)C)C(=O)N[C@@H](CCCCN)C(=O)N[C@@H](CCCN=C(N)N)C(=O)N[C@@H](Cc1ccccc1)C(=O)N[C@@H](C)C(=O)N[C@@H](CCCCN)C(=O)O [LLRRVARLLKRFAK] | – | – | – | MIC [1]: 1.15 µM (≈ 2 µg/mL); MIC [2]: 4.6 µM (≈ 8 µg/mL); MIC [4]: 1.15 µM (≈ 2 µg/mL); MIC [5]: 4.6 µM (≈ 8 µg/mL)
CC[C@H](C)[C@H](NC(=O)[C@H](CCCCN)NC(=O)[C@H](Cc1ccccc1)NC(=O)[C@@H](NC(=O)[C@@H](NC(=O)[C@@H]1CCCN1C(=O)[C@@H](N)CC(C)C)C(C)C)C(C)C)C(=O)N[C@@H](C)C(=O)N[C@@H](CO)C(=O)N[C@@H](CCCCN)C(=O)N[C@H](C(=O)N[C@H](C(=O)N1CCC[C@H]1C(=O)N[C@@H](CO)C(=O)N[C@H](C(=O)N[C@H](C(=O)N[C@@H](CO)C(=O)N[C@@H](CCCCN)C(=O)N[C@H](C(=O)N[C@H](C(=O)O)[C@@H](C)O)[C@@H](C)CC)[C@@H](C)CC)C(C)C)C(C)C)C(C)C [LPVVFKIASKVVPSVISKIT] | ≥ 120 | – | > 120 | –
CC[C@H](C)[C@H](NC(=O)[C@H](Cc1ccccc1)NC(=O)[C@H](CCCCN)NC(=O)[C@H](C)NC(=O)[C@@H](NC(=O)[C@H](CO)NC(=O)[C@H](CCCCN)NC(=O)[C@@H](N)CCSC)[C@@H](C)CC)C(=O)N[C@@H](C)C(=O)N[C@@H](CCCCN)C(=O)N[C@H](C(=O)N[C@H](C(=O)N[C@@H](C)C(=O)N[C@@H](CCCCN)C(=O)N[C@@H](CCC(N)=O)C(=O)NCC(=O)N[C@@H](C)C(=O)N[C@@H](CCCCN)C(=O)N[C@@H](CCC(N)=O)C(=O)NCC(=O)O)C(C)C)[C@@H](C)O [MKSIAKFIAKTVAKQGAKQG] | ≥ 122 | – | > 122 | –
CC[C@H](C)[C@H](NC(=O)[C@H](CO)NC(=O)[C@H](CC(C)C)NC(=O)CNC(=O)[C@@H](NC(=O)[C@@H](NC(=O)[C@H](CCCCN)NC(=O)[C@@H]1CCCN1)C(C)C)C(C)C)C(=O)N[C@H](C(=O)N[C@H](C(=O)N[C@H](C(=O)N[C@@H](CCCCN)C(=O)N[C@@H](C)C(=O)N[C@@H](CCCCN)C(=O)N[C@H](C(=O)N[C@@H](CO)C(=O)N[C@@H](CO)C(=O)N[C@@H](C)C(=O)N[C@@H](CC(C)C)C(=O)NCC(=O)O)C(C)C)C(C)C)C(C)C)C(C)C [PKVVGLSIVVVKAKVSSALG] | ≥ 131 | – | > 131 | –
C[C@H](NC(=O)[C@H](Cc1c[nH]c2ccccc12)NC(=O)[C@H](CCCCN)NC(=O)[C@H](Cc1ccccc1)NC(=O)[C@H](CCCN=C(N)N)NC(=O)[C@H](Cc1c[nH]c2ccccc12)NC(=O)[C@@H](N)CCCN=C(N)N)C(=O)N[C@@H](CCCCN)C(=O)N[C@@H](CCCCN)C(=O)O [RWRFKWAKK] | – | – | – | MIC [2]: ≥ 76.6 µM; MIC [7]: > 76.6 µM; MIC [4]: > 76.6 µM; MIC [5]: > 76.6 µM
CC[C@H](C)[C@H](NC(=O)[C@H](CCCCN)NC(=O)[C@@H](NC(=O)[C@H](C)NC(=O)[C@@H](NC(=O)[C@H](CC(C)C)NC(=O)[C@H](CCCCN)NC(=O)[C@H](C)NC(=O)[C@@H](NC(=O)[C@@H](NC(=O)CNC(=O)[C@@H](NC(=O)[C@H](CC(C)C)NC(=O)[C@@H](N)[C@@H](C)O)C(C)C)C(C)C)C(C)C)C(C)C)[C@@H](C)O)C(=O)NCC(=O)N[C@@H](CO)C(=O)N[C@@H](CO)C(=O)N1CCC[C@H]1C(=O)N[C@@H](CCCN=C(N)N)C(=O)N[C@@H](C)C(=O)O [TLVGVVAKLVATKIGSSPRA] | ≥ 130 | – | > 130 | –
CC(C)C[C@H](NC(=O)[C@H](CCCCN)NC(=O)[C@@H]1CCCN1C(=O)[C@H](CC(C)C)NC(=O)[C@H](CC(C)C)NC(=O)[C@@H]1CCCN1C(=O)[C@H](CCCCN)NC(=O)[C@H](CC(C)C)NC(=O)[C@H](CCCCN)NC(=O)[C@@H]1CCCN1C(=O)[C@H](CC(C)C)NC(=O)[C@H](CC(C)C)NC(=O)[C@H](CC(C)C)NC(=O)[C@H](CCCCN)NC(=O)[C@H](CC(C)C)NC(=O)[C@H](CC(C)C)NC(=O)[C@H](CCCCN)NC(=O)[C@@H](N)Cc1ccc(O)cc1)C(N)=O [YKLLKLLLPKLKPLLPKL] | – | – | – | MIC [1]: 19.9 µM (≈ 42.4 µg/mL); MIC [7]: > 79.7 µM; MIC [8]: 23.3 µM (≈ 49.7 µg/mL)
